Consider 2 molecules from patent EP4778933A1 (Chengdu Hyperway Pharmaceuticals Co., Ltd., priority 2023, dated 2025).

For data set [1], the system named is NCI H358 (KRAS G12C). In words: 3D cell proliferation inhibition test (CellTiter-Glo 3D, 7 days), NCI H358. To be noted: Homo sapiens, NCI-H358, 168 h, read-out: Inhibitory activity on cell proliferation (IC50) NCI H358 (KRAS G12C). Type of data set: cell-based. The protocol: The diluted compounds to be tested were added to 384-well low-adhesion KRAS mutant types (such as GP2D, NCI H358, LoVo, RKN and KP2) of cell culture plates by using a nanoliter pipetting system (LABCYTE, P-0200). Then, the cells were plated and incubated in a 37°C, 5% CO2 incubator for 7 days. Afterward, CellTiter-Glo® 3D reagent was added, and the luminescent values were read by an Envision multifunctional microplate reader (the luminescent signal is proportional to the amount of ATP in the system, and the ATP content directly represents the number of viable cells in the system). Finally, the IC50 values (half-maximal inhibitory concentration) of the compounds were obtained by the XLFIT software using the nonlinear fitting formula.
• a) The diluted compounds to be tested were added to 384-well low-adhesion KRAS mutant types of cell culture plates by using a nanoliter pipetting system. • b) Cells were seeded into the 384-well plates in a) and then centrifuged at 1000 rpm for 1 min at room temperature, with a final DMSO concentration of compound being 0.5%. The plates were then incubated in a 5% CO2 constant-temperature incubator at 37°C for 7 days. • c) CellTiter-Glo® 3D was added to the 384-well cell culture plates in b), shaken in the dark, and incubated at room temperature. • d) The luminescence values were read by using an Envision multifunctional microplate reader. […]

Data set [2] can be described thus: In vivo pharmacokinetic test in rats. To be noted: male rats; for F: oral 30 mg/kg vs intravenous; for AUC / Cmax: rat, oral, single dose 30 mg/kg, plasma. More on the design: species or system SD Rats. On the procedure:
Each test compound was administered orally once to male […] rats for pharmacokinetic study. The test compounds were prepared on the day of administration. The intravenous administration solvent: 5% DMSO + 10% solutol + 85% saline; and the oral administration solvent: 50 mM sodium citrate (pH 5.0) + 10% captisol. The oral administration was conducted in a dose of 30 mg/kg. The animals were fasted for 10-14 h before oral administration, and the feeding was resumed 4 h after administration. Pharmacokinetic samples were collected through the orbit. The collection time points were: 5 min (intravenous administration), 15 min, 30 min, 1 h, 2 h, 4 h, 6 h, 8 h and 24 h after administration. Three whole blood samples were collected at each time point, with a collection volume of about 0.2 mL, and anticoagulated with sodium heparin. After blood samples were collected, they were immediately placed on ice and centrifuged within 1 h to isolate plasma (centrifugation conditions: 8000 rpm, 1 min, 2-8°C). The collected plasma was stored in a -20°C refrigerator before analysis. The concentrations of compounds in the plasma samples were determined using an LC-MS/MS analysis method. Table 4: Pharmacokinetic test results of some compounds in SD Rats

Data set [3] concerns human ovarian cancer RKN mouse xenograft tumors. Briefly: In vivo drug efficacy, RKN subcutaneous xenograft tumor model. More on the design: species or system Balb/c nude mice. The following applies: 50 mg/kg, PO; for inhibitory effects on human ovarian cancer RKN mouse xenograft tumors: BID, 28 days; for Tumor volume inhibition rate (TGI): RKN xenograft, BID × 28, day 28. The protocol:
A subcutaneous xenograft tumor model of human ovarian cancer RKN (derived from uterine leiomyosarcoma) cells was established in Balb/c nude mice. RKN tumor cells resuspended in Ham's F12 medium were inoculated subcutaneously on the right side of the experimental animals at 5×10^6 + gel/0.1 mL. When the tumor grew to about 150-200 mm^3, 20 animals having relatively uniform tumor volumes were selected for group administration, with a total of 4 groups, 5 animals in each group. On the day of the experiment, the animals were given the corresponding drugs according to the groups. The first group G1 was set as a solvent group, and 50 mM citrate buffer (pH 5.0) + 10% Captisol was given by gavage alone. The second group G2 was given a 50 mM citrate buffer (pH 5.0) + 10% Captisol of compound 21. The third group G3 was given a 50 mM citrate buffer (pH 5.0) + 10% Captisol of compound 26. The fourth group G4 was given a 50mM citrate buffer (pH 5.0) + 10% Captisol of compound 31. Table 7: Study on effect of test substances on animal tumor size in the human ovarian cancer RKN mouse xenograft tumor model
During the experiment, the body weight and tumor size of the animals were measured twice a week, and the clinical symptoms of the animals were observed and recorded every day. Each drug administration was based on the most recent weighing of the animals.
The tumor was measured with a digital vernier caliper to measure the length (a) and width (b). The tumor volume (TV) was calculated using the following formula: TV = a × b^2 /2. [formula]
A general note: A xenograft is tissue or cells of one species grown in another, often human tumour cells in immunodeficient mice.

By AUC is commonly meant the area under the concentration-time curve, a measure of exposure. Broadly, the Cmax is the highest concentration seen after dosing. Consider `CC1(O)COCCN(c2nc(OCC34CCCN3C(c3cc(F)c(F)c(F)c3)CC4)nc3c(F)c(-c4cccc5sc(N)c(C#N)c45)c(Br)cc23)C1` (single isomer, unassigned) [Example 26, 2-amino-4-[6-bromo-8-fluoro-4-(6-hydroxy-6-methyl-1,4-oxazepan-4-yl)-2-({[3-(3,4,5-trifluoropheny 1)-2,3,5,6,7,7a-hexahydro-1H-pyrrolizin-7a-yl]methyl}oxy)quinazolin-7-yl]benzo[b]thiophene-3-carb onitrile], for which the IC50 in data set [1] worked out at 1.03 nM. Further, the F in data set [2] turned out to be 22.3%. In data set [2] (in vivo), the area under the curve (AUC) came to 12400 ng·h/mL and the Cmax came out at 1190 ng/mL. In data set [3], the “inhibitory effects on human ovarian cancer RKN mouse xenograft tumors” value is reported as “significant inhibitory effects” and the “Tumor volume inhibition rate (TGI)” value worked out at 116%.
`CC1(O)COCCN(c2nc(OCC34CCCN3C(c3cc(F)c(F)c(F)c3)CC4)nc3c(F)c(-c4cccc5sc(N)c(C#N)c45)c(I)cc23)C1` (single isomer, unassigned) [Example 31, 2-amino-4-[6-iodo-8-fluoro-4-(6-hydroxy-6-methyl-1,4-oxazepan-4-yl)-2-({[3-(3,4,5-trifluorophenyl)-2,3,5,6,7,7a-hexahydro-1H-pyrrolizin-7a-yl]methyl}oxy)quinazolin-7-yl]benzo[b]thiophene-3-carbonitrile]: in data set [1], the IC50 was determined as 0.69 nM. In data set [2] (Sprague-Dawley (SD)), this molecule showed an area under the curve (AUC) of 11300 ng·h/mL and a peak concentration (Cmax) of 1030 ng/mL. The same molecule gave a F in data set [2] of 21.5%. Further, in data set [3], the “inhibitory effects on human ovarian cancer RKN mouse xenograft tumors” value is “significant inhibitory effects” and the “Tumor volume inhibition rate (TGI)” value amounted to 116%.
